Assay results as given in patent publication US11524966B1 (Valo Early Discovery, Inc., priority 2017, dated 2022).

Target: T1, USP28 (His-tagged USP28-FL-mammalian) (Homo sapiens, UniProt Q96RU2)
T1 construct: Expression of USP28 (1-1077)-TEV-6*His (pTT5 vector); made in house; host or cells: Expi293f cells (pTT5 vector)
T1 sequence (Q96RU2 1-1077): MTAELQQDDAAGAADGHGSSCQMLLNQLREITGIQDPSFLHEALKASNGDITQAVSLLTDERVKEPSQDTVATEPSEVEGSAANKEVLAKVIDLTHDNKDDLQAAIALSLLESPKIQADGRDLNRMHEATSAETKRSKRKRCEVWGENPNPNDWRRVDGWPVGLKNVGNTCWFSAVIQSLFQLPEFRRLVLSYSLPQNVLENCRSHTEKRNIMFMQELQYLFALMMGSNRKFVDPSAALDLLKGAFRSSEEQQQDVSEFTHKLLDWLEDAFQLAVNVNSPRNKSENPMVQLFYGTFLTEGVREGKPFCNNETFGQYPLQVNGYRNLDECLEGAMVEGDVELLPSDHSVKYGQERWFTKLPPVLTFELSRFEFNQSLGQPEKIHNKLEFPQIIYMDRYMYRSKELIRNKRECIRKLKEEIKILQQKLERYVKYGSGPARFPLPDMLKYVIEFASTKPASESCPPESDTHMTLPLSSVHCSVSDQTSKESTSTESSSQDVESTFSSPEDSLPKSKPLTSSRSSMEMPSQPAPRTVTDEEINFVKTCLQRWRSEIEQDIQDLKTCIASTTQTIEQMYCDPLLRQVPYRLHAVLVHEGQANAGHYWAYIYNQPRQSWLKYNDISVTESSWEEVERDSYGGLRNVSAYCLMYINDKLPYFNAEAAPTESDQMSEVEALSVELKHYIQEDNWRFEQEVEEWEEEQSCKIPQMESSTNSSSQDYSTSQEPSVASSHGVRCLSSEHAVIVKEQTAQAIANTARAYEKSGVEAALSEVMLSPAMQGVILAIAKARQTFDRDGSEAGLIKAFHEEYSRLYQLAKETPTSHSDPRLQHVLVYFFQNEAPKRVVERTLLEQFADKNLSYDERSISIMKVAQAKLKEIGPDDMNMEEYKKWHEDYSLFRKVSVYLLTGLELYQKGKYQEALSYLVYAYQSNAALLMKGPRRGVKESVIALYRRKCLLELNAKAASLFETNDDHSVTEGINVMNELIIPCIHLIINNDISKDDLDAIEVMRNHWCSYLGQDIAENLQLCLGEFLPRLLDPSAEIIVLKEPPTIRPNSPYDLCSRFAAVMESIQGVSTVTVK
Experiment: Ubiquitin-Rhodamine 110 Assay for USP28 Activity, Example A-1(a)
Format: biochemical
Settings: Ubiquitin-Rhodamine 110 assay, Example A-1(a); read-out: USP28 A-1(a) IC50 range
Outline: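 Full-length His-tagged USP28 (1-1077, Expi293F-expressed; […]) was preincubated 30 min with compound (25 μM–1.3 nM, 10-point 3-fold) in 20 mM Tris-HCl pH 8.0, 3 mM BME, 0.03% BGG, 0.01% Triton X-100. Ub-Rh110 (25 nM) was then added for 45 min at room temperature, stopped with citric acid, and read by fluorescence (485/535 nm).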

Structure (SMILES) | IC50 [nM]
CO[C@]1(C)CN(c2ccc3c(n2)CC[C@H](NC(=O)c2sc4nc(C)cnc4c2N)C3)C[C@H]1N [Example 280, 7-amino-N-[(6S)-2-[(3R,4R)-4-amino-3-methoxy-3-methylpyrrolidin-1-yl]-5,6,7,8-tetrahydroquinolin-6-yl]-3-methylthieno[2,3-b]pyrazine-6-carboxamide] | 200 to 2000
Cc1ccc2c(N)c(C(=O)N[C@H]3COc4cc(N5C[C@@H](N)[C@@]6(CCO6)C5)ccc4C3)sc2n1 [Example 339, 3-amino-N-[(3R)-7-[(4R,8R)-8-amino-1-oxa-6-azaspiro[3.4]octan-6-yl]-3,4-dihydro-2H-1-benzopyran-3-yl]-6-methylthieno[2,3-b]pyridine-2-carboxamide] | 1 to 50
